Test results: the supplement of paper PMC10307832

Assays:
Assay in all cases: relative viability (nuclei count vs DMSO), 5 days (fraction); higher = more cells survive
[1] = compound: C=CC(=O)N1CCC[C@@H](n2nc(-c3ccc(Oc4ccccc4)cc3)c3c(N)ncnc32)C1 [Ibrutinib] + COc1cc2c(Oc3ccc(NC(=O)C4(C(=O)Nc5ccc(F)cc5)CC4)cc3F)ccnc2cc1OCCCN1CCOCC1 [Foretinib] (partner 0.25 µM)
Summary of the method: (§1)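 Relative viability was taken as the ratio of nuclei in treated wells to nuclei in vehicle wells. Lung cancer cell lines in 1536-well plates received compounds by pin tool one day after seeding, either one drug alone or a fixed anchor-drug dose plus five library-drug doses (not always all listed) in √10 steps. Nuclei were counted on 4× images after 5 days of treatment, and values are medians of duplicate plates.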

[2] = compound: C=CC(=O)N1CCC[C@@H](n2nc(-c3ccc(Oc4ccccc4)cc3)c3c(N)ncnc32)C1 [Ibrutinib] + C[C@]1(O)C[C@@H](c2nc(-c3ccc4ccc(-c5ccccc5)nc4c3)c3c(N)nccn32)C1 [Linsitinib] (partner 1 µM)
Summary of the method: as §1

[3] = compound: C=CC(=O)Nc1cc(-n2c(=O)ccc3cnc4ccc(-c5ccc(NS(C)(=O)=O)cc5)cc4c32)ccc1C [BMX-IN-1] + CS(=O)(=O)N1CCN(Cc2cc3nc(-c4cccc5[nH]ncc45)nc(N4CCOCC4)c3s2)CC1 [Pictilisib] (partner 1 µM)
Summary of the method: as §1

[4] = compound: C=CCc1cccc(/C=N/NC(=O)CN2CCN(Cc3ccccc3)CC2)c1O [PAC-1] + Cc1cc(Nc2cc(N3CCN(C)CC3)nc(Sc3ccc(NC(=O)C4CC4)cc3)n2)n[nH]1 [Tozasertib] (partner 0.1 µM)
Summary of the method: as §1

Cell Line | relative viability ([1]; first compound 0.005 µM) | relative viability ([1]; first compound 0.01581 µM) | relative viability ([1]; first compound 0.05 µM) | relative viability ([1]; first compound 0.1581 µM) | relative viability ([1]; first compound 0.5 µM) | relative viability ([2]; first compound 0.01581 µM) | relative viability ([2]; first compound 0.05 µM) | relative viability ([2]; first compound 0.1581 µM) | relative viability ([2]; first compound 0.5 µM) | relative viability ([3]; first compound 0.02 µM) | relative viability ([3]; first compound 0.2 µM) | relative viability ([3]; first compound 0.6325 µM) | relative viability ([3]; first compound 2 µM) | relative viability ([4]; first compound 0.02 µM) | relative viability ([4]; first compound 0.06325 µM) | relative viability ([4]; first compound 0.2 µM) | relative viability ([4]; first compound 2 µM) | relative viability ([2]; first compound 0.005 µM)
NCI-H1355 | 0.863 | 0.88 | 0.848 | 0.981 | 0.793 | 0.666 | 0.713 | 0.885 | 0.67 | 0.374 | 0.443 | 0.487 | 0.434 | 0.536 | 0.568 | 0.569 | 0.564 | 
LK-2 |  |  | 1.32 | 1.27 | 0.996 | 0.7 | 0.552 | 0.377 | 0.528 | 0.8 | 0.696 | 0.543 | 0.59 | 0.174 | 0.186 | 0.199 | 0.175 | 0.422
NCI-H1650 | 1.01 | 0.793 | 0.934 |  | 0.732 |  |  |  |  | 0.776 | 0.675 | 0.705 | 0.548 | 0.361 | 0.393 | 0.522 | 0.375 | 
NCI-H838 | 0.929 | 0.985 | 1.07 | 1.01 | 1.02 | 1 | 0.983 | 1.08 | 1.01 | 0.535 | 0.444 | 0.598 | 0.472 | 0.283 | 0.239 | 0.262 | 0.279 | 1.02
EMC-BAC-2 | 0.88 | 0.894 |  | 0.969 | 0.797 | 0.703 | 0.637 | 0.795 | 0.586 | 0.556 | 0.562 | 0.621 | 0.506 | 0.297 | 0.263 | 0.265 | 0.274 | 0.777
SW 1573 | 0.816 | 0.733 | 1.01 | 0.844 | 0.879 | 0.761 | 0.925 | 0.814 | 0.809 | 0.5 | 0.512 | 0.466 | 0.478 | 0.172 | 0.184 | 0.255 | 0.148 | 0.732
CAL-12T | 1.11 | 0.958 | 0.981 | 1.14 | 1.19 | 0.724 | 0.627 | 0.739 | 0.472 | 0.527 | 0.425 | 0.47 | 0.422 | 0.265 | 0.315 | 0.327 | 0.293 | 0.805
NCI-H2009 | 1.31 | 1.21 | 1.14 | 1.19 | 1.26 | 1.13 | 1.14 | 1.23 | 1.18 | 1.19 | 0.946 | 0.905 | 0.765 | 0.816 | 0.715 | 0.698 | 0.696 | 1.21
HARA | 0.917 | 0.717 | 0.705 | 0.933 | 0.403 | 0.818 | 0.751 | 0.904 |  | 0.4 | 0.284 | 0.482 | 0.397 | 0.108 | 0.115 | 0.136 | 0.111 | 1.09
HCC-827 | 1.04 | 0.993 | 0.813 | 1.03 | 0.165 | 0.947 | 1.01 | 0.854 | 0.32 | 1.03 | 1.15 | 1.04 | 1.05 | 0.397 | 0.401 | 0.4 | 0.421 | 1.01
EBC-1 | 0.0898 | 0.102 | 0.102 | 0.0945 | 0.098 | 1 | 0.825 | 0.864 | 0.952 | 0.249 | 0.303 | 0.382 | 0.255 |  |  |  |  | 0.848
NCI-H647 |  | 1.13 | 1.23 | 1.25 | 1.17 | 0.995 | 1.15 | 1.14 | 1.1 | 0.498 | 0.356 | 0.396 | 0.471 | 0.336 | 0.403 | 0.256 | 0.242 | 1.05
A549 | 0.878 | 0.852 | 1.03 | 0.984 | 0.877 | 0.58 | 0.519 | 0.505 | 0.377 | 0.69 | 0.757 | 0.56 | 0.517 |  |  |  |  | 
NCI-H661 | 1.06 | 0.839 | 0.842 | 0.984 | 0.616 | 0.48 | 0.543 | 0.546 | 0.355 | 0.349 | 0.436 | 0.368 | 0.316 | 0.364 | 0.332 | 0.348 | 0.331 | 0.477
NCI-H1651 | 0.928 | 0.931 | 0.896 | 0.882 | 0.615 | 0.765 | 0.901 | 0.991 | 0.927 | 0.658 | 0.754 | 0.741 | 0.595 | 0.615 | 0.786 | 0.631 | 0.65 | 0.99
HCC-78 | 0.651 | 0.489 | 0.527 | 0.547 | 0.348 | 0.489 | 0.432 | 0.485 | 0.33 | 0.214 | 0.18 | 0.242 | 0.249 | 0.486 | 0.399 | 0.496 | 0.342 | 0.555
NCI-H2085 | 0.916 | 0.628 | 0.941 | 1.1 | 0.625 | 0.884 | 0.865 | 0.895 | 0.775 | 0.433 | 0.389 | 0.485 | 0.443 | 0.787 | 0.81 | 0.797 | 0.796 | 1.04
NCI-H2228 | 0.845 |  | 0.915 | 0.892 | 0.609 | 0.689 | 0.71 | 0.936 | 0.454 | 0.578 | 0.471 | 0.443 | 0.432 | 0.228 | 0.258 | 0.263 | 0.234 | 0.62
LU99A | 0.734 | 0.703 | 0.856 | 0.945 | 0.497 | 0.51 | 0.497 | 0.54 | 0.521 | 0.309 | 0.382 | 0.39 | 0.301 | 0.309 | 0.254 | 0.247 | 0.286 | 0.504
